These results are taken from patent US5028613A, “Novel pyrroloquinoline alkaloids and methods of use” (Repligen Corporation, priority 1990, dated 1991).

Each structure is given as a SMILES string. In brackets after ≈: the same amount, converted by molar mass. Like-named read-outs stand apart in the source and are kept apart here.

The subject of one assay is C. albicans. The experiment in a line: C. albicans MIC (microtiter broth dilution). It counts as cell-based, Candida albicans (ATCC strain 44506). As to conditions: Candida albicans, read-out: C. albicans MIC. As to the method: (§1) All media were autoclaved at 121° C. for 15 minutes. Candida albicans: C. albicans (ATCC strain 44506) was grown on Sabouraud dextrose agar to produce single colonies, one of which was used to inoculate Sabouraud dextrose broth. The broth was incubated at 37° C. with shaking at 200 rpm for 18 hours. The resultant culture was brought to 10% (v/v) glycerol, frozen at -80° C., and used as the inoculum for the anti-Candida assay. Aspergillus nidulans: A. nidulans (ATCC strain 36321) was grown from a spore stock on the surface of a YAG plate (YAG: yeast extract 0.5%; glucose 2%; agar 2%) at 30° C. until the colony sporulated; at this point the colony was green (usually within one week). Spores were harvested by washing with 0.1% (v/v) TRITON™ X-100. Spores were then washed with distilled water before freezing at -80° C. in the presence of 10% (v/v) glycerol. Bacillus subtilis: Standard spore stocks (ATCC strain 6633) were purchased from Difco (#0453-36-0). Escherichia coli: The BMR strain was used. This was grown overnight with shaking at 37° C. in nutrient broth and frozen in 1 mL aliquots in the presence of 10% (v/v) glycerol at -80° C. Pseudomonas aeruginosa: (ATCC strain 27853) Grown and stored as described for E. coli.
Two-fold dilutions of the drug/extract were prepared in 50 μL volumes of a suitable solvent using 96-well microtiter plates. A 25% mixture of MeOH in water was generally used; however, EtOH, 5% EtOAc in EtOH, DMSO, or other compatible solvents could be substituted if necessary. In a separate 96-well plate, 35 μL volumes of either Sabouraud dextrose broth or RPMI-1640 were placed in each well. The drug/extract (5 μL) was then transferred to the broth using a 12-place pipettor. An inoculum of C. albicans in the appropriate medium was added to give a cell density of 1000 cells/mL and a total volume of 50 μL. […] SDB plates were incubated at 37° C. overnight, RPMI-1640 plates were incubated at 37° C. in a humidified atmosphere of 10% CO2.

The test system of assay [1] is P388 murine leukemia cells. Briefly: P388 mouse leukemia cell antiproliferative assay (MTT). The class given is cell-based. The note with it: 48 hour exposure. Here is the method: P388 murine leukemia cells obtained from Dr. J. Mayo, National Cancer Institute, Bethesda, Md., were maintained in Roswell Park Memorial Institute medium 1640 (RPMI-1640) supplemented with 10% horse serum and cultured in plastic tissue culture flasks and kept in an incubator at 37° C. in humidified air containing 5% CO2. Antibiotic-free stock cultures of P388 cells were subcultured to 10^5 cells/ml by dilutions in fresh growth medium at 2 to 5 day intervals.
(§2) To assess the antiproliferative effects of agents against P388 cells, 200 μl cultures (96-well tissue culture plates, Nunc, Denmark) were established at 1×10^5 cells/ml in drug-free medium containing agents at various concentrations. After 48 hour exposures, P388 cells were enumerated using 3-[4,5-dimethylthiazol-2-yl]-2,5-diphenyltetrazolium bromide (MTT) as described below.
(§3) To quantitate the effects of agents on cell proliferation, 75 μl warm growth medium containing 5 mg/ml MTT was added to each well. Cultures were returned to the incubator and left undisturbed for 90 minutes. To spectrophotometrically quantitate formation of reduced formazan, plates were centrifuges (900 g, 5 minutes), culture fluids were removed by aspiration, and 200 μl of acidified isopropanol (2 ml concentrated HCl/L isopropanol) added per well. The absorbance of the resulting solutions were measured at 570 nm with a plate reader (MR700 Microplate Reader, Dynatech Laboratories, Chantilly, Va.). […] A linear relationship between P388 cell number and formazan production was found over the range of cell densities observed in this study.

A further assay deals with A549 cell line. Briefly: A549 cell assay (analogous MTT procedure). It counts as cell-based. The note with it: Homo sapiens, procedure analogous to P388. Here is the method:
as §2, §3
(§4) Analogous procedures were followed for the A549 and HT29 cell lines.

The subject of the next assay is HT29 cell line. Briefly: HT29 cell assay (analogous MTT procedure). The note with it: Homo sapiens, HT-29; procedure analogous to P388. The class given is cell-based. As to the method:
as §2, §3, §4

A further assay concerns B. subtilis. Briefly: B. subtilis growth inhibition (disc diffusion assay). It counts as cell-based, Bacillus subtilis (ATCC strain 6633). As to conditions: result in words. Here is the method:
as §1, with “This was grown overnight with shaking at 37° C. in nutrient broth and frozen in 1 mL aliquots in the presence of 10% (v/v) glycerol at -80° C. Pseudomonas aeruginosa: (ATCC strain 27853) Grown and stored as described for E. coli.” left out
Paper discs (6.35 mm) were impregnated with the test substance and allowed to dry. […] Plates were incubated overnight (C. albicans, B. subtilis, E. coli, and P. aeruginosa 37° C.; and A. nidulans 30° C.) after which time the zones of growth inhibition could be read. These are expressed as the diameter of the zone in millimeters. […]

Where [2] appears, read: lowest concentration completely inhibiting growth.

Turning to `CSc1c2c3c(n1C)C(=O)C(N)=C(Cl)C3=NCC2` [Isobatzelline A], in the assay on C. albicans (setting [2]), the MIC was 3.1 µg/mL (≈ 11 µM). The IC50 in assay [1] is 0.42 µg/mL (≈ 1.49 µM); with A549 cell line, 0.07 µg/mL (≈ 0.248 µM); in the assay with HT29 cell line, 0.44 µg/mL (≈ 1.56 µM). In addition, the “inhibition of the growth of B. subtilis” value in the assay on B. subtilis was “inhibit the growth of B. subtilis”.

For `CSc1c2c3c(n1C)C(=O)C(N)=CC3=NCC2` [Isobatzelline B], the MIC in the assay with C. albicans (setting [2]) stood at 25 µg/mL (≈ 101 µM). Moreover, the values for the half-inhibitory concentration (IC50) (in assay [1]; in the assay on A549 cell line; with HT29 cell line) were 2.6 µg/mL (≈ 10.5 µM), 2.8 µg/mL (≈ 11.3 µM) and 2.5 µg/mL (≈ 10.1 µM), respectively.

For `Cn1cc2c3c1C(=O)C(N)=C(Cl)C3=NCC2` [Isobatzelline C], the minimum inhibitory concentration (MIC) in the assay on C. albicans is 50 µg/mL (≈ 212 µM). Moreover, the IC50 in assay [1] is 12.6 µg/mL (≈ 53.5 µM); with A549 cell line, more than 20 µg/mL; in the assay with HT29 cell line it was 10 µg/mL (≈ 42.4 µM).

`CSc1c2ccnc3c2c(n1C)C(=O)C(N)=C3Cl` [Isobatzelline D]: the minimal inhibitory concentration (MIC) in the assay on C. albicans (setting [2]) came out at 25 µg/mL (≈ 89.4 µM). Moreover, the IC50 is 20 µg/mL (≈ 71.5 µM) in assay [1], more than 20 µg/mL in the assay with A549 cell line and more than 20 µg/mL in the assay with HT29 cell line.
